Results on 4 compounds are retold here after US20140243334A1, “SUBSTITUTED HYDOXAMIC ACIDS AND USES THEREOF” (Millennium Pharmaceuticals, Inc., priority 2010, published 2014).

Structures are written as SMILES.

This assay has as its target T1, purified human HDAC6 (Homo sapiens, UniProt Q9UBN7).
T1 construct: purchased BPS Bioscience 5006
T1 sequence (Q9UBN7 1-1215): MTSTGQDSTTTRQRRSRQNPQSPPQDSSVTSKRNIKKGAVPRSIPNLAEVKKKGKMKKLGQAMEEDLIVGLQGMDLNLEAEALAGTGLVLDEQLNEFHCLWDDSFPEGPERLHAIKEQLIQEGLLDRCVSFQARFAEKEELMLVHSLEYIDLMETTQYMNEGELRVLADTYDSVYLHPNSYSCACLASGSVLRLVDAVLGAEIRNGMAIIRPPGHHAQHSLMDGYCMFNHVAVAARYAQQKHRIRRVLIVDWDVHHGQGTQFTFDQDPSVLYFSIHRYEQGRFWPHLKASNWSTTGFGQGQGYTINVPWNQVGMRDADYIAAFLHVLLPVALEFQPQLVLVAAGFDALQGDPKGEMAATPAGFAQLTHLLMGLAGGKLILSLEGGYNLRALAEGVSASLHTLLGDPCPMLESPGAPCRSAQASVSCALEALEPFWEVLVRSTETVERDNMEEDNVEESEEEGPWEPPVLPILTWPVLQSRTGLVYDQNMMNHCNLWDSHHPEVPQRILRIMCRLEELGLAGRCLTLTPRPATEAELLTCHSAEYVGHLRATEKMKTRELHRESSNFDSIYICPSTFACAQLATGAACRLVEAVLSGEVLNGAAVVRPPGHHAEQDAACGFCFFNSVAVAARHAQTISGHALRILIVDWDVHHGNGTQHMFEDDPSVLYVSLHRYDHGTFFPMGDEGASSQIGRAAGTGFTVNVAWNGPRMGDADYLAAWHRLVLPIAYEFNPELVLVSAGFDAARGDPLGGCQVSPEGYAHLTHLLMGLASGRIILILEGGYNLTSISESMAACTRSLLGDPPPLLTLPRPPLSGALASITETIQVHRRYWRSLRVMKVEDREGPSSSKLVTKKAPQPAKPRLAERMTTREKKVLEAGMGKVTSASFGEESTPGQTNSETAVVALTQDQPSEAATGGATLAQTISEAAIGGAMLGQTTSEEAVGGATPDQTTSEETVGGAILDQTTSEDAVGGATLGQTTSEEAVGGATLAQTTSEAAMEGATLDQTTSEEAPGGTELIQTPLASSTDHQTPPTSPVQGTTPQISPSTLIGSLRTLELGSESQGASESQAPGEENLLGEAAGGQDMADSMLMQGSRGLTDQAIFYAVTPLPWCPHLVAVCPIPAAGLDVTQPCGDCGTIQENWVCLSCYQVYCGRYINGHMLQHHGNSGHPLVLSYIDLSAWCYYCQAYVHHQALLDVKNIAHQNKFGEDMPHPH
In words: HDAC6 Enzyme Assay. The assay is classed as biochemical. To be noted: HDAC6 inhibition at a compound concentration of 0.412 μM; read-out: Percent Inhibition at 0.412 μM.
For `O=C(NO)C1CCc2ccc(-c3ccc(OCc4ccccc4)cc3)cc2C1` (stereo not shown) [Compound I-121, 7-[4-(benzyloxy)phenyl]-N-hydroxy-1,2,3,4-tetrahydronaphthalene-2-carboxamide], the inhibition (as a rule, the change of the read-out against control, counted positive when it falls) at 0.412 µM came to 54%. Under `CC(C)Cc1ccc(-c2ccc3c(c2)CC(C(=O)NO)CC3)cc1` (stereo not shown) [Compound I-122, N-hydroxy-7-(4-isobutylphenyl)-1,2,3,4-tetrahydronaphthalene-2-carboxamide] stands 34%. Turning to `O=C(NO)C1CCc2ccc(-c3ccc(S(=O)(=O)N4CCCCC4)cc3)cc2C1` (stereo not shown) [Compound I-123, N-hydroxy-7-[4-(piperidin-1-ylsulfonyl)phenyl]-1,2,3,4-tetrahydronaphthalene-2-carboxamide], the inhibition at 0.412 µM is 61%. Turning to `CC1(C(=O)NO)CCc2ccc(Oc3ccc(Cl)cc3)cc2C1` (stereo not shown) [Compound I-124, 7-(4-Chlorophenoxy)-N-hydroxy-2-methyl-1,2,3,4-tetrahydronaphthalene-2-carboxamide], the inhibition at 0.412 µM amounted to 16%.
